Assay results from the supplement of paper PMC10307832.

Tests used:
Assay in all cases: relative viability (nuclei count vs DMSO), 5 days (fraction); higher = more cells survive
[1] = compound: CN(C)CC1=CC(=CC=C1)N=C(C2=CC=CC=C2)C3=C(NC4=C3C=CC(=C4)C(=O)N(C)C)O + CCNC(=O)c1noc(-c2cc(C(C)C)c(O)cc2O)c1-c1ccc(CN2CCOCC2)cc1 [Luminespib] (partner 0.01 µM)
How it was run: (§1)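 Lung cancer cell lines in 1536-well plates got either a single drug or a fixed anchor-drug dose together with five library-drug doses (not always all listed) in √10 steps, by pin tool, on the day after seeding. Nuclei were counted after 5 days, and relative viability is the treated-to-vehicle ratio of nuclei counts. Values are medians of duplicate plates.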

[2] = compound: CN(C)CC1=CC(=CC=C1)N=C(C2=CC=CC=C2)C3=C(NC4=C3C=CC(=C4)C(=O)N(C)C)O + Cc1cc(Nc2cc(N3CCN(C)CC3)nc(Sc3ccc(NC(=O)C4CC4)cc3)n2)n[nH]1 [Tozasertib] (partner 0.1 µM)
How it was run: as §1

[3] = compound: CN(C)CC1=CC(=CC=C1)N=C(C2=CC=CC=C2)C3=C(NC4=C3C=CC(=C4)C(=O)N(C)C)O + Cc1nc(NC(=O)N2CCC[C@H]2C(N)=O)sc1-c1ccnc(C(C)(C)C(F)(F)F)c1 [Alpelisib] (partner 2 µM)
How it was run: as §1

[4] = compound: CN(C)CC1=CC(=CC=C1)N=C(C2=CC=CC=C2)C3=C(NC4=C3C=CC(=C4)C(=O)N(C)C)O + Cc1nc(Nc2ncc(C(=O)Nc3c(C)cccc3Cl)s2)cc(N2CCN(CCO)CC2)n1 [Dasatinib] (partner 0.075 µM)
How it was run: as §1

## NCI-H3122
[1]; first compound 0.08 µM
  relative viability: 0.0882
[1]; first compound 0.253 µM
  relative viability: 0.0788
[1]; first compound 0.8 µM
  relative viability: 0.075
[1]; first compound 2.53 µM
  relative viability: 0.142
[1]; first compound 8 µM
  relative viability: 0.0907
[2]; first compound 0.08 µM
  relative viability: 0.416
[2]; first compound 0.253 µM
  relative viability: 0.359
[2]; first compound 0.8 µM
  relative viability: 0.448
[2]; first compound 2.53 µM
  relative viability: 0.383
[2]; first compound 8 µM
  relative viability: 0.438
[3]; first compound 0.08 µM
  relative viability: 0.679
[3]; first compound 0.253 µM
  relative viability: 0.81
[3]; first compound 0.8 µM
  relative viability: 0.813
[3]; first compound 2.53 µM
  relative viability: 0.732
[3]; first compound 8 µM
  relative viability: 0.792
[4]; first compound 0.08 µM
  relative viability: 0.686
[4]; first compound 0.253 µM
  relative viability: 0.867
[4]; first compound 0.8 µM
  relative viability: 0.846
[4]; first compound 2.53 µM
  relative viability: 0.844
[4]; first compound 8 µM
  relative viability: 0.951

## PC-3 [JPC-3]
[1]; first compound 0.08 µM
  relative viability: 0.705
[1]; first compound 0.253 µM
  relative viability: 0.69
[1]; first compound 0.8 µM
  relative viability: 0.707
[1]; first compound 2.53 µM
  relative viability: 0.751
[1]; first compound 8 µM
  relative viability: 0.695
[2]; first compound 0.08 µM
  relative viability: 0.877
[2]; first compound 0.253 µM
  relative viability: 0.855
[2]; first compound 0.8 µM
  relative viability: 0.854
[2]; first compound 2.53 µM
  relative viability: 0.814
[2]; first compound 8 µM
  relative viability: 0.922
[3]; first compound 0.08 µM
  relative viability: 1.02
[3]; first compound 0.253 µM
  relative viability: 0.976
[3]; first compound 0.8 µM
  relative viability: 1.04
[3]; first compound 2.53 µM
  relative viability: 1.01
[3]; first compound 8 µM
  relative viability: 1.02
[4]; first compound 0.08 µM
  relative viability: 1.01
[4]; first compound 0.253 µM
  relative viability: 1.03
[4]; first compound 0.8 µM
  relative viability: 0.911
[4]; first compound 2.53 µM
  relative viability: 0.914
[4]; first compound 8 µM
  relative viability: 0.992

## PC-14
[1]; first compound 0.08 µM
  relative viability: 0.206
[1]; first compound 0.253 µM
  relative viability: 0.131
[1]; first compound 0.8 µM
  relative viability: 0.146
[1]; first compound 2.53 µM
  relative viability: 0.145
[1]; first compound 8 µM
  relative viability: 0.102
[2]; first compound 0.08 µM
  relative viability: 0.564
[2]; first compound 0.253 µM
  relative viability: 0.604
[2]; first compound 0.8 µM
  relative viability: 0.618
[2]; first compound 2.53 µM
  relative viability: 0.531
[2]; first compound 8 µM
  relative viability: 0.649
[3]; first compound 0.08 µM
  relative viability: 0.92
[3]; first compound 0.253 µM
  relative viability: 0.865
[3]; first compound 0.8 µM
  relative viability: 0.962
[3]; first compound 2.53 µM
  relative viability: 0.924
[3]; first compound 8 µM
  relative viability: 0.837
[4]; first compound 0.08 µM
  relative viability: 0.289
[4]; first compound 0.253 µM
  relative viability: 0.273
[4]; first compound 0.8 µM
  relative viability: 0.324
[4]; first compound 2.53 µM
  relative viability: 0.247
[4]; first compound 8 µM
  relative viability: 0.197

## RERF-LC-KJ
[1]; first compound 0.08 µM
  relative viability: 1.34
[1]; first compound 0.253 µM
  relative viability: 1.4
[1]; first compound 0.8 µM
  relative viability: 1.25
[1]; first compound 2.53 µM
  relative viability: 1.13
[1]; first compound 8 µM
  relative viability: 1.23
[2]; first compound 0.08 µM
  relative viability: 0.494
[2]; first compound 0.253 µM
  relative viability: 0.493
[2]; first compound 0.8 µM
  relative viability: 0.536
[2]; first compound 2.53 µM
  relative viability: 0.523
[2]; first compound 8 µM
  relative viability: 0.408
[3]; first compound 0.08 µM
  relative viability: 0.838
[3]; first compound 0.253 µM
  relative viability: 0.843
[3]; first compound 0.8 µM
  relative viability: 0.732
[3]; first compound 2.53 µM
  relative viability: 0.785
[3]; first compound 8 µM
  relative viability: 0.928
[4]; first compound 0.08 µM
  relative viability: 0.931
[4]; first compound 0.253 µM
  relative viability: 0.831
[4]; first compound 0.8 µM
  relative viability: 0.876
[4]; first compound 2.53 µM
  relative viability: 0.749
[4]; first compound 8 µM
  relative viability: 0.793

## SK-LU-1
[1]; first compound 0.08 µM
  relative viability: 0.226
[1]; first compound 0.253 µM
  relative viability: 0.191
[1]; first compound 0.8 µM
  relative viability: 0.21
[1]; first compound 2.53 µM
  relative viability: 0.188
[1]; first compound 8 µM
  relative viability: 0.225
[2]; first compound 0.08 µM
  relative viability: 0.262
[2]; first compound 0.253 µM
  relative viability: 0.327
[2]; first compound 0.8 µM
  relative viability: 0.33
[2]; first compound 2.53 µM
  relative viability: 0.351
[2]; first compound 8 µM
  relative viability: 0.295
[3]; first compound 0.08 µM
  relative viability: 0.883
[3]; first compound 0.253 µM
  relative viability: 1.01
[3]; first compound 0.8 µM
  relative viability: 0.992
[3]; first compound 2.53 µM
  relative viability: 0.87
[3]; first compound 8 µM
  relative viability: 0.597
[4]; first compound 0.08 µM
  relative viability: 0.185
[4]; first compound 0.253 µM
  relative viability: 0.199
[4]; first compound 0.8 µM
  relative viability: 0.188
[4]; first compound 2.53 µM
  relative viability: 0.196
[4]; first compound 8 µM
  relative viability: 0.163

## SK-MES-1
[1]; first compound 0.08 µM
  relative viability: 0.544
[1]; first compound 0.253 µM
  relative viability: 0.749
[1]; first compound 0.8 µM
  relative viability: 0.678
[1]; first compound 2.53 µM
  relative viability: 0.834
[1]; first compound 8 µM
  relative viability: 0.521
[2]; first compound 0.08 µM
  relative viability: 0.846
[2]; first compound 0.253 µM
  relative viability: 0.944
[2]; first compound 0.8 µM
  relative viability: 0.892
[2]; first compound 2.53 µM
  relative viability: 0.849
[2]; first compound 8 µM
  relative viability: 0.824
[3]; first compound 0.08 µM
  relative viability: 0.876
[3]; first compound 0.253 µM
  relative viability: 0.883
[3]; first compound 0.8 µM
  relative viability: 0.716
[3]; first compound 2.53 µM
  relative viability: 0.851
[3]; first compound 8 µM
  relative viability: 0.875
[4]; first compound 0.08 µM
  relative viability: 0.438
[4]; first compound 0.253 µM
  relative viability: 0.349
[4]; first compound 0.8 µM
  relative viability: 0.25
[4]; first compound 2.53 µM
  relative viability: 0.388
[4]; first compound 8 µM
  relative viability: 0.311

## SW 1573
[1]; first compound 0.08 µM
  relative viability: 0.162
[1]; first compound 0.253 µM
  relative viability: 0.269
[1]; first compound 0.8 µM
  relative viability: 0.207
[1]; first compound 2.53 µM
  relative viability: 0.296
[1]; first compound 8 µM
  relative viability: 0.183
[2]; first compound 0.08 µM
  relative viability: 0.292
[2]; first compound 0.253 µM
  relative viability: 0.172
[2]; first compound 0.8 µM
  relative viability: 0.149
[2]; first compound 2.53 µM
  relative viability: 0.176
[2]; first compound 8 µM
  relative viability: 0.152
[3]; first compound 0.08 µM
  relative viability: 0.787
[3]; first compound 0.253 µM
  relative viability: 0.711
[3]; first compound 0.8 µM
  relative viability: 0.651
[3]; first compound 2.53 µM
  relative viability: 0.802
[3]; first compound 8 µM
  relative viability: 0.642
[4]; first compound 0.08 µM
  relative viability: 0.538
[4]; first compound 0.253 µM
  relative viability: 0.794
[4]; first compound 0.8 µM
  relative viability: 0.589
[4]; first compound 2.53 µM
  relative viability: 0.436
[4]; first compound 8 µM
  relative viability: 0.383

## UMC-11
[1]; first compound 0.08 µM
  relative viability: 0.982
[1]; first compound 0.253 µM
  relative viability: 0.941
[1]; first compound 0.8 µM
  relative viability: 1.08
[1]; first compound 2.53 µM
  relative viability: 0.974
[1]; first compound 8 µM
  relative viability: 0.821
[2]; first compound 0.08 µM
  relative viability: 0.202
[2]; first compound 0.253 µM
  relative viability: 0.192
[2]; first compound 0.8 µM
  relative viability: 0.216
[2]; first compound 2.53 µM
  relative viability: 0.183
[2]; first compound 8 µM
  relative viability: 0.216
[3]; first compound 0.08 µM
  relative viability: 0.972
[3]; first compound 0.253 µM
  relative viability: 0.882
[3]; first compound 0.8 µM
  relative viability: 1.12
[3]; first compound 2.53 µM
  relative viability: 0.923
[3]; first compound 8 µM
  relative viability: 0.968
[4]; first compound 0.08 µM
  relative viability: 0.507
[4]; first compound 0.253 µM
  relative viability: 0.414
[4]; first compound 0.8 µM
  relative viability: 0.45
[4]; first compound 2.53 µM
  relative viability: 0.445
[4]; first compound 8 µM
  relative viability: 0.407
